Assay results reported in the supplement of paper PMC12463676, “Small-molecule dissolution of stress granules by redox modulation benefits ALS models” (Nature Chemical Biology, 2025).

Key:
lipoamide = compound: NC(=O)CCCCC1CCSS1 [lipoamide]; assay: thermal stability z-score vs DMSO; higher = more thermally stabilized by treatment; details: HeLa, lipoamide concentration 100 µM
Protocol: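 Cellular thermal proteome profiling in HeLa cells. Cells were treated with 100 µM lipoamide for 1 h, with or without 1 mM arsenate for a further 1 h, then heated to ten temperatures (37-66.3 °C), and soluble protein was quantified by TMT mass spectrometry relative to 0.1% DMSO controls. The thermal stability score (sum of log2 fold changes minus the abundance score) was transformed to a z-score; mean of n = 3 experiments.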

potassium arsenate = compound: O=[As]([O-])(O)O.[K+] [potassium arsenate]; assay: as above; details: HeLa; arsenate concentration 1 mM
Protocol: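 Cellular thermal proteome profiling in HeLa cells treated with 1 mM arsenate for 1 h (DMSO pretreatment), heated to ten temperatures (37-66.3 °C). Soluble protein was quantified by TMT mass spectrometry relative to DMSO controls; the thermal stability score was transformed to a z-score; mean of n = 3 experiments.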

[1] = arsenate co-treatment: 1 mM arsenate 1 h
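Also: each temperature applied for 3 min, abundance score taken as mean log2 fold change at the two lowest temperatures, z-score obtained by mean subtraction and division by SD.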

UniProt O00161, sequence (O00161 whole entry): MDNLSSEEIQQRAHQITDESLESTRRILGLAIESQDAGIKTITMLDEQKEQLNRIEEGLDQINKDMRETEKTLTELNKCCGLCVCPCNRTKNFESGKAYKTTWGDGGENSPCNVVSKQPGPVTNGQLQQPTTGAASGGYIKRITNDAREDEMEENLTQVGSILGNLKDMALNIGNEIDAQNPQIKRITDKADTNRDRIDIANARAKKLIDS
UniProt O60906, sequence (O60906 whole entry): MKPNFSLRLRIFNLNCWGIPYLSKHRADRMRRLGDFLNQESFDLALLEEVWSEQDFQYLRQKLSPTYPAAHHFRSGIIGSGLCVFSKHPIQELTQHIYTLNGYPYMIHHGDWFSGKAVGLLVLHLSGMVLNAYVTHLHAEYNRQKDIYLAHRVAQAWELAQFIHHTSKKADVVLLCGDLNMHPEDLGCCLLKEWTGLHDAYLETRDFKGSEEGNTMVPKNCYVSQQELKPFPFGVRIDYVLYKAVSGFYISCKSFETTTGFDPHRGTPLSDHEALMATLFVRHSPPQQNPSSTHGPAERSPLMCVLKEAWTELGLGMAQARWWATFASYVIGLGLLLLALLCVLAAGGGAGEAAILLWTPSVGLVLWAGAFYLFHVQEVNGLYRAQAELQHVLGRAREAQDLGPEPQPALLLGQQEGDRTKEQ
UniProt Q16637, sequence (Q16637 whole entry): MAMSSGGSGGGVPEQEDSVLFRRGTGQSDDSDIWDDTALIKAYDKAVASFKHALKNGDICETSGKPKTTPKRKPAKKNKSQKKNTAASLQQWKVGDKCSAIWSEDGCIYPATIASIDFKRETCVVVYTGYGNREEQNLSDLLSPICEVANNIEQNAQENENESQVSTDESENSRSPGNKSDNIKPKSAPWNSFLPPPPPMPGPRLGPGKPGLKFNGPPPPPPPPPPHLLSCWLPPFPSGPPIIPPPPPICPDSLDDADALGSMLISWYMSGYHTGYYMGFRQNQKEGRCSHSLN
UniProt Q96Q15, sequence (Q96Q15 whole entry): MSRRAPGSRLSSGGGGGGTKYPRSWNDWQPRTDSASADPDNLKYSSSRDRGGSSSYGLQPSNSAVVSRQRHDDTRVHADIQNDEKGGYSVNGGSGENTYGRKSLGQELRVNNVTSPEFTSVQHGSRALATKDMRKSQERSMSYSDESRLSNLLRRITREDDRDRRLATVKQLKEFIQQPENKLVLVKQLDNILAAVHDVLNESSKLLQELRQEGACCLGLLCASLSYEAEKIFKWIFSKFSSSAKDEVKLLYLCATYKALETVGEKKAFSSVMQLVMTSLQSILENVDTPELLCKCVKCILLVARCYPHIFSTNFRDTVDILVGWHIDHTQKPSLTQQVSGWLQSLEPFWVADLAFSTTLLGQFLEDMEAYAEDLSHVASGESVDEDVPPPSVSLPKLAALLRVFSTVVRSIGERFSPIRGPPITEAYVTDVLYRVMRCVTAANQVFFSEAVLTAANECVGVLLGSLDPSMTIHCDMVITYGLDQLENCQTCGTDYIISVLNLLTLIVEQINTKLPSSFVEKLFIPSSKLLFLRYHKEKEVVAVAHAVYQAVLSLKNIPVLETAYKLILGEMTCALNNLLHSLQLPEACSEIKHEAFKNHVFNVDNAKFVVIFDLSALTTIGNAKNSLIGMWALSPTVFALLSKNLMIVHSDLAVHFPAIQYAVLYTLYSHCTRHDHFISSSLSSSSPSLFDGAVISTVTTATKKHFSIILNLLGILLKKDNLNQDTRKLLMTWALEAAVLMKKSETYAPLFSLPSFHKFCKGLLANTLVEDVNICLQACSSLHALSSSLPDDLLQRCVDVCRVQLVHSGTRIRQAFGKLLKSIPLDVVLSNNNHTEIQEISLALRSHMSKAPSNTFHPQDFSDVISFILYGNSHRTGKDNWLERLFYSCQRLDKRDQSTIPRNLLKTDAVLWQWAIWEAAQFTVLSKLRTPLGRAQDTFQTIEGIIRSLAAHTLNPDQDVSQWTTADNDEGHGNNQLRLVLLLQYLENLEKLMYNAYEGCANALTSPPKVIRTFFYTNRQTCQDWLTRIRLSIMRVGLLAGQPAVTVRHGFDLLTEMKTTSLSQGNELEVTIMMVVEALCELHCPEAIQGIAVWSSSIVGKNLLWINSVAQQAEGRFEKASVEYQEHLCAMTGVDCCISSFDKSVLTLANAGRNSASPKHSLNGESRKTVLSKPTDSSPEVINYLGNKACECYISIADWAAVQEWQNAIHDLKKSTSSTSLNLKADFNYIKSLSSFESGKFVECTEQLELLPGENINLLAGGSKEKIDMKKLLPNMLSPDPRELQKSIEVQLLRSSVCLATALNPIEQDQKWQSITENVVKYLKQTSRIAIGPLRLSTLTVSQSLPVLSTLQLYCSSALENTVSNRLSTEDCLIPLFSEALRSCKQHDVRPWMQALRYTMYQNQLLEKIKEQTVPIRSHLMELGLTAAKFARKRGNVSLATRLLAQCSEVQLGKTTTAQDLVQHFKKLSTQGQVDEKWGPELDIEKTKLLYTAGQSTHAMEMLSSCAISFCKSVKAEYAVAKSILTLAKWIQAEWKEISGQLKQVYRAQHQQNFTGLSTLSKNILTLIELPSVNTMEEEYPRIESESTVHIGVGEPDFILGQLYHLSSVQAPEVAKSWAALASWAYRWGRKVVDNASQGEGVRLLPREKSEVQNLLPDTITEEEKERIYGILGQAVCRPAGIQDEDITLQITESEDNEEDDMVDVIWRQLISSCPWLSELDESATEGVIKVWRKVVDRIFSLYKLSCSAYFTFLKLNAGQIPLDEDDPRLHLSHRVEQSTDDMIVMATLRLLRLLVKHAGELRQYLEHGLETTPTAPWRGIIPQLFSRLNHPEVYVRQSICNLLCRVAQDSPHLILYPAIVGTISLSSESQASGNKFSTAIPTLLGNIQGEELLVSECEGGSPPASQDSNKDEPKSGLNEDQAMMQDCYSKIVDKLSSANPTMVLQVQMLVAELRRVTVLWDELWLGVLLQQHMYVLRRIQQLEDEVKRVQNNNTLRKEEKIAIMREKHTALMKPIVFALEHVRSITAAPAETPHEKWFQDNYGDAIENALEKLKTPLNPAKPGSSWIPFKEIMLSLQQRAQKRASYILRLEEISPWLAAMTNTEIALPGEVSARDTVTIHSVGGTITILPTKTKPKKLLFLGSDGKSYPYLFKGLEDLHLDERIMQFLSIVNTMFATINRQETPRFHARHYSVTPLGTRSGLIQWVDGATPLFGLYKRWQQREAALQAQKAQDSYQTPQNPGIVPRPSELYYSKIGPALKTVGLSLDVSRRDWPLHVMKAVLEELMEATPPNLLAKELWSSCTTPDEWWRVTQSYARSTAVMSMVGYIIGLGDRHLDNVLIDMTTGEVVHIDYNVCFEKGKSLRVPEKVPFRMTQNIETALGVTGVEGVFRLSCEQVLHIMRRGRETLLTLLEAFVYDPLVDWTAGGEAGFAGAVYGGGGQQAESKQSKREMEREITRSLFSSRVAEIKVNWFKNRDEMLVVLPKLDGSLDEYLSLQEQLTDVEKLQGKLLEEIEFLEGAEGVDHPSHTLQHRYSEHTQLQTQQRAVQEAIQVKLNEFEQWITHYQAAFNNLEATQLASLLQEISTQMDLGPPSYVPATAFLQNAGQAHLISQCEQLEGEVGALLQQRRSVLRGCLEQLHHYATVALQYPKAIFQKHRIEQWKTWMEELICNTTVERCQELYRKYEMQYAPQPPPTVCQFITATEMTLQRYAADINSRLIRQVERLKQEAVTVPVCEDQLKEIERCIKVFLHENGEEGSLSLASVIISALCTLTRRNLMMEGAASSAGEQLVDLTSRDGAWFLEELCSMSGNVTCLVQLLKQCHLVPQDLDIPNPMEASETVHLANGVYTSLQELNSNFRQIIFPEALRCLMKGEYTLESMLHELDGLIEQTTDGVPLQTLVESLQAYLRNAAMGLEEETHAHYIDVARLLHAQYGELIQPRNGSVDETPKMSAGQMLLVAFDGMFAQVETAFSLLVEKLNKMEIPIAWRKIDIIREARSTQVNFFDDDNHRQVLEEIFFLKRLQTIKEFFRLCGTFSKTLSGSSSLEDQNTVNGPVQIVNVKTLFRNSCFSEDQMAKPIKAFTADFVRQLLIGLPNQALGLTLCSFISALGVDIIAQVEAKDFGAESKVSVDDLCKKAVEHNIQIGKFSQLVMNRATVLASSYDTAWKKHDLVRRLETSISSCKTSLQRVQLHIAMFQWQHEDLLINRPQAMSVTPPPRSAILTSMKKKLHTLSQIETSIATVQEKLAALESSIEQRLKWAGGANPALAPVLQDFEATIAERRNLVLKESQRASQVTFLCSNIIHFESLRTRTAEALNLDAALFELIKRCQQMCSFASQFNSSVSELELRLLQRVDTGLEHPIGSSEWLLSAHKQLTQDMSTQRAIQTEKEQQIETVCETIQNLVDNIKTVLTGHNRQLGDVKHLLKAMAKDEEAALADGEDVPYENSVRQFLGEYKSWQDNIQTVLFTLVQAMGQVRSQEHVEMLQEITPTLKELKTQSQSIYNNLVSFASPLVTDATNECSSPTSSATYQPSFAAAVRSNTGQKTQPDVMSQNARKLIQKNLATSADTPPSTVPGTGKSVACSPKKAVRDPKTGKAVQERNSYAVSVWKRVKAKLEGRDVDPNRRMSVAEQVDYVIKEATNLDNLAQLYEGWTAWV
UniProt Q9H7B4, sequence (Q9H7B4 whole entry): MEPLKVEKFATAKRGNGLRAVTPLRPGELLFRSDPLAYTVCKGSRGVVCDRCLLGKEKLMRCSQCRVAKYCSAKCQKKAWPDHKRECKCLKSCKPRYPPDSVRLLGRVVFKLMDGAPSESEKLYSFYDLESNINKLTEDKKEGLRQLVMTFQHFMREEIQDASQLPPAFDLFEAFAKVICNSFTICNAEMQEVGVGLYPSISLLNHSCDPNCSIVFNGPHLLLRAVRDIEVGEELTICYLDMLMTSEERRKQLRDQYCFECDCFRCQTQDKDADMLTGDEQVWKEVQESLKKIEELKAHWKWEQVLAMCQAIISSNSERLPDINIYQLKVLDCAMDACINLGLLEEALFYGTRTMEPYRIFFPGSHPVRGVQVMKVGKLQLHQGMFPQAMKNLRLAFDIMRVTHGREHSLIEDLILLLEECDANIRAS

Target | thermal stability z-score (lipoamide; [1]) | thermal stability z-score (lipoamide; arsenate co-treatment: none) | thermal stability z-score (potassium arsenate)
SMARCD1 (UniProt Q96GM5) | -0.0223 | 0.0841 | -0.164
SMARCD2 (UniProt Q92925) | 0.132 | 0.101 | -0.0687
SMARCE1 (UniProt Q969G3) | 1.96 | 1.55 | 0.125
SMC1A (UniProt Q14683) | 0.323 | 0.28 | -0.186
SMC2 (UniProt O95347) | 0.528 | 0.546 | 0.802
SMC3 (UniProt Q9UQE7) | 0.0797 | 0.288 | -0.181
SMC4 (UniProt Q9NTJ3) | 0.387 | 1.46 | 0.763
SMC5 (UniProt Q8IY18) | 0.427 | -0.175 | 1.83
SMC6 (UniProt Q96SB8) | -0.138 | 0.113 | 0.067
SMCHD1 (UniProt A6NHR9) | -0.13 | -0.0876 | -0.528
SMG1 (UniProt Q96Q15) | -0.284 | -0.117 | 0.119
SMG5 (UniProt Q9UPR3) | -0.0554 | 0.0814 | -0.104
SMG7 (UniProt Q92540) | -0.0753 | -0.0219 | -0.0408
SMG8 (UniProt Q8ND04) | -1.73 | -0.705 | 0.575
SMG9 (UniProt Q9H0W8) | -0.596 | -0.49 | -0.274
SMIM12 (UniProt Q96EX1) | -0.371 | 0.35 | 0.0454
SMN1 (UniProt Q16637) | 0.304 | 0.798 | -0.434
SMNDC1 (UniProt O75940) | -0.102 | -0.117 | -0.5

Target | thermal stability z-score (lipoamide; [1]) | thermal stability z-score (lipoamide; arsenate co-treatment: none) | thermal stability z-score (potassium arsenate)
SMOC1 (UniProt Q9H4F8) | -0.587 | -0.458 | -1.55
SMPD2 (UniProt O60906) | -0.297 | -0.186 | -0.382
SMPD4 (UniProt Q9NXE4) | 0.624 | 0.149 | 1.11
SMS (UniProt P52788) | 0.652 | 0.823 | 4.34
SMTN (UniProt P53814) | 0.0165 | 0.00756 | -0.4
SMU1 (UniProt Q2TAY7) | -0.141 | -0.0867 | 0.656
SMYD2 (UniProt Q9NRG4) | 0.863 | 0.716 | 1.28
SMYD3 (UniProt Q9H7B4) | -0.135 | -0.101 | -0.25
SMYD4 (UniProt Q8IYR2) | -0.0691 | -0.00905 | -0.0713
SMYD5 (UniProt Q6GMV2) | -0.19 | -0.177 | 0.224
SNAP23 (UniProt O00161) | 0.994 | 1.06 | -0.16
SNAP25 (UniProt P60880) | 0.86 | 0.512 | -0.723
SNAP29 (UniProt O95721) | -0.254 | 0.547 | 0.554
SNAP47 (UniProt Q5SQN1) | -0.303 | -0.252 | -0.104
SNAPC1 (UniProt Q16533) | -0.175 | -0.207 | 0.0437
SNAPC3 (UniProt Q92966) | -0.219 | -0.258 | -0.108
SNAPC5 (UniProt O75971) | -0.0463 | 0.216 | 0.158
SNAPIN (UniProt O95295) | 0.164 | 0.647 | 0.267
